Patent publication US6762052B1, “DNA sequence encoding flavin-containing monooxygenase” (priority 1993, dated 2004)
In brackets after ≈: the same amount, converted by molar mass. Like-named read-outs stand apart in the source and are kept apart here.

Columns and labels:
[1] = test system: human FMO3-maltose binding protein (FMO3-MBP); experiment: Sequential N-oxygenation of primary amines to oximes by cDNA-expressed human FMO3-MBP; type: in vitro ADME
Excerpt: The cDNA-expressed human FMO3-maltose binding protein (FMO3-MBP) efficiently catalyzes the sequential N-oxygenation of primary amines to oximes through the intermediacy of hydroxylamines. […] In addition, formation was not dependent on autoxidation of hydroxylamines or generation of oxygen radical species. Thus, […] and O2^− had virtually no effect on the formation of oxime from the primary hydroxylamine. […] This represents a fundamental difference between FMO3 and other FMOs and indicates a use of FMO3 as a stereoselective catalyst in the formation of precious chemicals or hard to form metabolites having great stereochemical purity.

[2] = test system: Human Liver Microsomes; experiment: in vitro
Procedure: In all cases examined, product formation was directly determined by HPLC analysis of organic extracts.
Human liver samples were obtained from the Department of Surgery (UCSF) and with a protocol from the Medical College of Wisconsin (S. Wrighton).
A typical incubation mixture (final volume 0.25 ml) contained hepatic microsomes (0.4 mg of protein) or bacterial lysate (2.3 mg of protein), NADP^+ (0.5 mM), glucose-6-phosphate (2.0 mM), glucose-6-phosphate dehydrogenase (1 IU), DETAPAC (0.8 mM) and potassium phosphate buffer (50 mM, pH 8.4). Reactions were initiated by the addition of substrate and terminated at designated times by the addition of three volumes of cold dichloromethane, mixed thoroughly and centrifuged to separate the aqueous and organic fractions. N- and S-oxide metabolic products in the resulting organic extracts were separated and quantified by HPLC. […] Thiobenzamide and thiobenzamide S-oxide were quantified with this same, HPLC system employing a mobile phase of methanol/acetonitrile/60% perchloric acid (20:80:0.016, v/v) which gave retention volumes of 2.7 and 7.0 ml, respectively. […] The major metabolites formed in the incubations were also subjected to mass spectral analysis after extraction of isolated HPLC fractions.
RPLC of the S-oxide diastereomers with a Chiracel OT chiral analytical column (25 cm×0.15 cm inner diameter, Daicel Chemical Co., New York, N.Y.) was accomplished with a Beckman system, Kratos UV detector (240 nm) and a Hewlett Packard Integrator. […] Quantification was accomplished by comparing integrated HPLC peak areas after taking into account the difference in the extinction coefficients at 240 nm. Likewise, the cis and trans S-oxide diasteromers of (+)- and (−)-2-methyl-1,-benzodithiole were separated with a Chiracel OT chiral analytical column.

[3] = target: human FMO3 (Homo sapiens, UniProt P31513); conditions: in vitro; cited from earlier work
human FMO3, sequence (P31513 whole entry, the tested form may be a part): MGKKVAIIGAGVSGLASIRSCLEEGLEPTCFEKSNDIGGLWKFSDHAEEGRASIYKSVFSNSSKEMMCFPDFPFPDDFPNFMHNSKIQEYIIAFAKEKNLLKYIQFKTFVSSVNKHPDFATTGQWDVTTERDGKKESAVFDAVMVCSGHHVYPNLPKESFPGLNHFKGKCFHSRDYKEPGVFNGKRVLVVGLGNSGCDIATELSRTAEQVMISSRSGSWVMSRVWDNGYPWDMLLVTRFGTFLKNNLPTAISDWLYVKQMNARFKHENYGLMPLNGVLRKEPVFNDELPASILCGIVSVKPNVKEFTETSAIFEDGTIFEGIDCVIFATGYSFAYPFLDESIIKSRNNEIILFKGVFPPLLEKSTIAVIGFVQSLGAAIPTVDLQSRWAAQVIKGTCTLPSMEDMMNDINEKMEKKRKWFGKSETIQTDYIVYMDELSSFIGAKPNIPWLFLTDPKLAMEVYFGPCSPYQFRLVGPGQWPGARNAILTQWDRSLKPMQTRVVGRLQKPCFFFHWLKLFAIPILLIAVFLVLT

[4] = target: T1, lys158-HFMO3-MBP (Homo sapiens, UniProt P31513, E158K); experiment: Substrate oxygenation by lys158-HFMO3-MBP fusion protein, HPLC; conditions: Lys 158 variant
T1 sequence (P31513 2-532 E158K): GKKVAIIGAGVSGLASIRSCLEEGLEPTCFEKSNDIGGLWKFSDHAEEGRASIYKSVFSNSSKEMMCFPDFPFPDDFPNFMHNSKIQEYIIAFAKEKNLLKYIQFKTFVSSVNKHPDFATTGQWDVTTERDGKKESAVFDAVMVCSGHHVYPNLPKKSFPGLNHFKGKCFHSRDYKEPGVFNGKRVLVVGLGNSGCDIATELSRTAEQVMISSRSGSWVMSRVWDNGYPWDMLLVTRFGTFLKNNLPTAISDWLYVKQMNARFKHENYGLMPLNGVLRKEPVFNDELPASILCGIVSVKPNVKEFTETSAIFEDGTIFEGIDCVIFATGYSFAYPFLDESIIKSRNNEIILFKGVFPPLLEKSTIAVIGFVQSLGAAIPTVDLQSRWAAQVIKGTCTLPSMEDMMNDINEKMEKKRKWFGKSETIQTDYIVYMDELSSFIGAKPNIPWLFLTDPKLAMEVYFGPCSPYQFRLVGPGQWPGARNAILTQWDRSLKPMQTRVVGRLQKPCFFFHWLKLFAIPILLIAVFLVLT
Procedure: For HFMO3-MBP assay, all HFMO3-MBP incubations were done as follows: Into a test tube was added DETAPAC (1.2 mM, final concentration for a 250 μl reaction) followed by the addition of 60 μl NADPH generating system (0.4 mM NADP, 0.4 mM glucose-6-phosphate, and 20 μl of a 50 units mI^−1 glucose-6-phosphate dehydrogenase). The tube was chilled on ice and buffer and enzyme were added as described below for individual experiments to give a volume of 240 μl. The incubation was initiated by the addition of 5-DTP (10 μl of 5 mM) and placed in a shaking water bath at 37° C. for 10 min (unless specified otherwise). The incubation was stopped by the addition of 1.0 ml of ice-cold CH2Cl2. Following the addition of sodium carbonate (approx. 20 mg), the culture tube was vortexed, centrifuged (2000×g, 10 min), and the organic layer was removed and transferred to a 1.5 ml microfuge tube. The organic solvent was evaporated under a stream of Ar(g) to dryness and the residue was taken up in MeOH (300 μl) for determination HPLC analysis.
Data was analyzed with a Hitachi D-2500 integrator.
MTS-oxygenation assays were carried out under the same buffer, temperature, time and volume conditions, as for the N-oxygenation assays. The reactions were initiated upon addition of 10 μl of a 5 mM solution of MTS. The reaction was quenched with the addition of 700 μl of 80% CH3CN:20% hexane then 20 mg NaCl(s) and vortexed vigorously for 10 sec. The quenched reactions were then centrifuged briefly to separate the phases. The organic layer, containing product and substrate, was removed and used directly for HPLC analysis.
All other instruments used were the same as above for the N-oxygenation reactions. Conditions for elution were 50% CH3CN/H2O (v:v) with a flow rate gradient as follows: 1.5 ml min^−1 from 0 to 4 min., 1.5-2.5 ml min^−1 from 4 to 5 min, 2.5 ml min^−1 from 5 to 15 min.
Trimethylamine is commonly ingested in foodstuffs or it is available in the diet of humans from choline and other sources. Trimethylamine (TMA) is exclusively eliminated in humans by metabolism to trimethylamine N-oxide (TMANO). […] Thus, urinary TMANO formation provides a simple, reliable and direct assay of FMO3 activity in adult humans. Analysis of TMA to TMANO ratios provides a direct means of phenotyping adult humans for FMO3 activity. Phenotyping FMO3 activity in humans would provide a simple means of evaluating the relationship between the presence of FMO3 and various disease conditions. […]

[5] = normal humans, dietary sources or otherwise; cited from earlier work
[6] = test system: NM522 E. coli; experiment: Bactericidal action / cytotoxicity in liquid culture
[7] = test system: E. coli strains that contained FMO3 cDNA; experiment: Agar plate growth in the presence of difloxacin, strains with FMO3 cDNA; type: cell-based; conditions: same conditions (0.25 microgram/mL)
Excerpt: (§1) To validate the observations made in liquid culture, agar plate experiments were done in the presence of difloxacin with different strains streaked out containing different FMO cDNAs.

[8] = test system: E. coli containing FMO1 cDNA plasmid; experiment: Agar plate growth in the presence of difloxacin, strain with FMO1 plasmid; type: cell-based; conditions: 0.25 microgram/mL
Excerpt: as §1

[9] = target: T2, pig liver FMO form I (Sus scrofa, UniProt P16549); conditions: cited from earlier work
T2 sequence (P16549 1-532): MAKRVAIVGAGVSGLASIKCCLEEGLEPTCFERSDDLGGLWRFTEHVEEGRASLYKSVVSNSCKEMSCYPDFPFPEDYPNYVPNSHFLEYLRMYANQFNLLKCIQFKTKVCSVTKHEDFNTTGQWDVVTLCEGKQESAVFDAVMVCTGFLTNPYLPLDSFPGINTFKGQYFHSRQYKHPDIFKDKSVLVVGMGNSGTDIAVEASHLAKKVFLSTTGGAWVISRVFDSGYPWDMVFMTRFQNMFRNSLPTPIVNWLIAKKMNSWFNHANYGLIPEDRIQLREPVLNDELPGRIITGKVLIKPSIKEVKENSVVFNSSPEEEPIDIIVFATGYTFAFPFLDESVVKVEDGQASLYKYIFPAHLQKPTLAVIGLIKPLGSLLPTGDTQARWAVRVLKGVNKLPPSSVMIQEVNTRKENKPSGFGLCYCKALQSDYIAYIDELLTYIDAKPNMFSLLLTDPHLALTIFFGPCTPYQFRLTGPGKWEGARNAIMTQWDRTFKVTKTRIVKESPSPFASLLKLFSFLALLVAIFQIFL

[10] = substrate: CN(C)C; experiment: not read; conditions: other: Lys 158 variant; evaporative light scattering HPLC detection; 37.0 °C
Procedure: This HPLC system efficiently resolved the 5-DTP substrate from the N-oxide product with retention times of 5.30 min and 4.30 min, respectively.
MTS-oxygenation assays were carried out under the same buffer, temperature, time and volume conditions, as for the N-oxygenation assays. The reactions were initiated upon addition of 10 μl of a 5 mM solution of MTS. […]

[11] = substrate: NC(=S)c1ccccc1; experiment: cells, lysate or membranes named; conditions: other: N- or S-oxide formation; for the 4-bromophenyl-1,3-oxathiolanes formation of the trans S-oxide; pH 8.4; 37.0 °C
Procedure: Competent NM522 Escherichia coli cells were transformed with the pTrc HLFMO 3 plasmid. […] After inoculation with a fresh overnight culture of NM522 containing pTrcHLFMO 3, the culture was grown at 37° C. until Abs600 was approximately 0.5 absorbance units. Finally, IPTG (0.8 mM) was added to the culture to induce expression of protein and the culture was left to grow overnight at 37° C.
The bacterial pellet was resuspended in 5 volumes of 50 mM potassium phosphate buffer (pH 8.4) containing 1% Triton X-100, 0.1% L-, α-phosphatidylcholine (L-α-lecithin) from egg yolk, 500 μM PMSF, and 1 mM EDTA. The mixture was sonicated and then centrifuged to remove cellular debris. […]

CCCCCCCCNN1c2ccccc2Sc2ccc(C(F)(F)F)cc21 [10-(N-n-octylamino)-2-(trifluoromethyl)phenothiazine]
oxime formation from primary amine, product stereoselectivity [1]: stereoselectively converted to the cis oxime | oxime formation from primary amine, product stereoselectivity [2]: stereoslectively converted to the cis oxime

CN1CCC[C@H]1c1cccnc1 [(S)-nicotine]
N-1'-oxide product stereoselectivity [3]: exclusively converted to trans (S)-nicotine N-1′-oxide

CN(C)C [TMA, trimethylamine]
Vmax of N-oxygenation to TMANO [4]: 3.8 nmol of TMANO formed/min/mg of protein | dose converted to TMANO that is excreted in the urine [5]: over 95%

C[N+]1([O-])CCN(c2cc3c(cc2F)c(=O)c(C(=O)O)cn3-c2ccc(F)cc2)CC1 [difloxacin terminal tertiary amine N-oxide]
cytotoxicity ([6]; 50 or 100 micrograms per mL): not significantly cytotoxic

CN1CCN(c2cc3c(cc2F)c(=O)c(C(=O)O)cn3-c2ccc(F)cc2)CC1 [difloxacin]
sensitivity of strains containing FMO3 cDNA to the antibiotic [7]: much more sensitive | EC50 ([6]; Escherichia coli, read-out: bactericidal action EC50): ~5 µg/mL (≈ 12.5 µM) | effect of FMO1 plasmid on growth in the presence of the antibiotic [8]: conferred resistance

CN(C)CCCN1c2ccccc2CCc2ccccc21 [imipramine]
substrate activity, in words [9]: excellent substrate

NCCc1ccccc1 [phenethylamine]
oxime formation from primary amine, product stereoselectivity ([1]; cDNA-expressed human FMO3-MBP): stereoselectively converted to trans oximes | oxime formation from primary amine, product stereoselectivity ([2]; adult human liver microsomes, NADPH-dependent): stereoselectively converted to trans oximes

B1: lys158-HFMO3-MBP (Homo sapiens; E158K) (protein)
chain: GKKVAIIGAGVSGLASIRSCLEEGLEPTCFEKSNDIGGLWKFSDHAEEGRASIYKSVFSNSSKEMMCFPDFPFPDDFPNFMHNSKIQEYIIAFAKEKNLLKYIQFKTFVSSVNKHPDFATTGQWDVTTERDGKKESAVFDAVMVCSGHHVYPNLPKKSFPGLNHFKGKCFHSRDYKEPGVFNGKRVLVVGLGNSGCDIATELSRTAEQVMISSRSGSWVMSRVWDNGYPWDMLLVTRFGTFLKNNLPTAISDWLYVKQMNARFKHENYGLMPLNGVLRKEPVFNDELPASILCGIVSVKPNVKEFTETSAIFEDGTIFEGIDCVIFATGYSFAYPFLDESIIKSRNNEIILFKGVFPPLLEKSTIAVIGFVQSLGAAIPTVDLQSRWAAQVIKGTCTLPSMEDMMNDINEKMEKKRKWFGKSETIQTDYIVYMDELSSFIGAKPNIPWLFLTDPKLAMEVYFGPCSPYQFRLVGPGQWPGARNAILTQWDRSLKPMQTRVVGRLQKPCFFFHWLKLFAIPILLIAVFLVLT
Km [10]: 634 µM

B2: adult human liver flavin-containing monooxygenase (form 3) (Homo sapiens; E158K) (protein)
chain: MGKKVAIIGAGVSGLASIRSCLEEGLEPTCFEKSNDIGGLWKFSDHAEEGRASIYKSVFSNSSKEMMCFPDFPFPDDFPNFMHNSKIQEYIIAFAKEKNLLKYIQFKTFVSSVNKHPDFATTGQWDVTTERDGKKESAVFDAVMVCSGHHVYPNLPKKSFPGLNHFKGKCFHSRDYKEPGVFNGKRVLVVGLGNSGCDIATELSRTAEQVMISSRSGSWVMSRVWDNGYPWDMLLVTRFGTFLKNNLPTAISDWLYVKQMNARFKHENYGLMPLNGVLRKEPVFNDELPASILCGIVSVKPNVKEFTETSAIFEDGTIFEGIDCVIFATGYSFAYPFLDESIIKSRNNEIILFKGVFPPLLEKSTIAVIGFVQSLGAAIPTVDLQSRWAAQVIKGTCTLPSMEDMMNDINEKMEKKRKWFGKSETIQTDYIVYMDELSSFIGAKPNIPWLFLTDPKLAMEVYFGPCSPYQFRLVGPGQWPGARNAILTQWDRSLKPMQTRVVGRLQKPCFFFHWLKLFAIPILLIAVFLVLT
Km [11]: 72.6 µM | Vmax [11]: 1.44 nmol/min/mg of protein
